This note sets out measurements from patent publication US9533991B2, “Inhibitors of Bruton's tyrosine kinase” (PHARMACYCLICS LLC, priority 2014, dated 2017).

SMILES strings stand for the structures.

Type in all cases: biochemical
One assay concerns the target LCK (Homo sapiens, UniProt P06239). Nature of the assay: Inhibition of a panel of kinases: LCK. The settings on record: kinase panel, Table 2. The method, then: (§1) The degree of inhibition of a panel of kinases is determined using assays similar to the kinase assay described in Example 53.
Another assay has as its target EGFR (Homo sapiens, UniProt P00533). Nature of the assay: Inhibition of a panel of kinases: EGFR. The settings on record: kinase panel, Table 2. How it is done:
as §1

Assay [1] concerns the target T1, Btk (Homo sapiens, UniProt Q06187). The experiment in a line: Btk in vitro inhibitory activity (Method A, B or C). Set-up: purified from insect cells as a full-length construct containing a N-terminal 6×-His tag; His6 (N); made in house; host or cells: insect cells (baculovirus, Sf21). The conditions noted are these: one of the methods of Example 53a, 53b, 53c. How it is done:
Btk kinase activity is determined using a time-resolved fluorescence resonance energy transfer (TR-FRET) methodology. Measurements are performed in a reaction volume of 50 μL using 96-well assay plates. Kinase enzyme, inhibitor, ATP (at the Km for the kinase), and 1 μM peptide substrate (Biotin-AVLESEEELYSSARQ-NH2 (SEQ ID NO: 1)) are incubated in a reaction buffer composed of 20 mM Tris, 50 mM NaCl, MgCl2 (5-25 mM depending on the kinase), MnCl2 (0-10 mM), 1 mM DTT, 0.1 mM EDTA, 0.01% bovine serum albumin, 0.005% Tween-20, and 10% DMSO at pH 7.4 for one hour. The reaction is quenched by the addition of 1.2 equivalents of EDTA (relative to divalent cation) in 25 μL of 1× Lance buffer (Perkin-Elmer). Streptavidin-APC (Perkin-Elmer) and Eu-labeled p-Tyr100 antibody (Perkin-Elmer) in 1× Lance buffer are added in a 25 μL volume to give final concentrations of 100 nM and 2.5 nM, respectively, and the mixture is allowed to incubate for one hour. The TR-FRET signal is measured on a multimode plate reader with an excitation wavelength (λEx) of 330 nm and detection wavelengths (λEm) of 615 and 665 nm. Activity is determined by the ratio of the fluorescence at 665 nm to that at 615 nm. For each compound, enzyme activity is measured at various concentrations of compound. Negative control reactions are performed in the absence of inhibitor in replicates of six, and two no-enzyme controls are used to determine baseline fluorescence levels. Inhibition constants, Ki(app), ware obtained using the program BatchKi (Kuzmic et al. (2000), Anal. Biochem. 286:45-50). IC50s are obtained according to the equation: IC50={Ki(app)/1+[ATP]/Km^ATP)}+[E]total/2;
For all kinases, [ATP]=Km^ATP, [Btk]total=0.5 nM and [Lck]total=6 nM.
Kinase activity is measured in vitro using electrophoretic mobility shift assay. The kinase reactions are assembled in a total volume of 25 μL in 384 well plates. The reactions comprise: BTK enzyme (1 nM, N-terminal His6-tagged, recombinant, full-length, human BTK purified from baculovirus Sf21 insect cell system), inhibitor, ATP (16 μM, the apparent Km for the kinase), fluorescently labeled peptide substrate (1 μM, FAM-GEEPLYWSFPAKKK-NH2 (SEQ ID NO: 2)) in a reaction buffer composed of 100 mM HEPES, pH7.5, 5 mM MgCl2 1 mM DTT, 0.1% bovine serum albumin, 0.01% Triton X-100, and 1% DMSO. The reaction is incubated for one hour and is quenched by the addition of 45 μL of termination buffer (100 mM HEPES, pH7.5, 0.01% Triton X-100, 30 mM EDTA). The terminated reactions are analyzed using 12 channel LabChip® 3000 microfluidic detection instrument (Caliper Life Sciences). The enzymatic phosphorylation of the peptide results in a change in net charge, enabling electrophoretic separation of product from substrate peptide. As substrate and product peptides are separated, two peaks of fluorescence are observed. Change in the relative fluorescence intensity of the substrate and product peaks is the parameter measured, reflecting enzyme activity. In the presence of an inhibitor, the ratio between product and substrate is altered: the signal of the product decreases, while the signal of the substrate increases.
Activity in each sample is determined as the product to sum ratio (PSR):P/(S+P), where P is the peak height of the product peptide and S is the peak height of the substrate peptide. For each compound, enzyme activity is measured at various concentrations (12 concentrations of compound spaced by 3× dilution intervals). Negative control samples (0%−inhibition in the absence of inhibitor) and positive control samples (100%−inhibition, in the presence of 20 mM EDTA) are assembled in replicates of four and are used to calculate %−inhibition values for each inhibitor at each concentration. Percent inhibition (Pinh) is determined using following equation: […]

Assay [2] addresses T1, Btk. Nature of the assay: Inhibition of a panel of kinases: Btk. The settings on record: kinase panel, Table 2. The method, then: as §1

Sequence of LCK (P06239 whole entry, species assumed): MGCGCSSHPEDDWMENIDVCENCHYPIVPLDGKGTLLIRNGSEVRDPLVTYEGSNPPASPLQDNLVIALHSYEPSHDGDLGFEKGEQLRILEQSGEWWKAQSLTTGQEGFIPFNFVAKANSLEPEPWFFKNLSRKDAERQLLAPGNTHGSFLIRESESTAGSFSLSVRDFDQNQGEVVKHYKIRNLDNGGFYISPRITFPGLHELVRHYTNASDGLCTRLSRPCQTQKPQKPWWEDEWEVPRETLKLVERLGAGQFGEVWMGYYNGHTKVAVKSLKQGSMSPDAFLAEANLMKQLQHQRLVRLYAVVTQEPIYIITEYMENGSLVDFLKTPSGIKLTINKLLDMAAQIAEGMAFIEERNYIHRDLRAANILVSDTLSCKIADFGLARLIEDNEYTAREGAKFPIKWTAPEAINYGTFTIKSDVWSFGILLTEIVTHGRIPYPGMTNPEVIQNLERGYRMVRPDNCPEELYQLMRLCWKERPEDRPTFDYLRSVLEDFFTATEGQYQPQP
Sequence of EGFR (P00533 25-1210, species assumed): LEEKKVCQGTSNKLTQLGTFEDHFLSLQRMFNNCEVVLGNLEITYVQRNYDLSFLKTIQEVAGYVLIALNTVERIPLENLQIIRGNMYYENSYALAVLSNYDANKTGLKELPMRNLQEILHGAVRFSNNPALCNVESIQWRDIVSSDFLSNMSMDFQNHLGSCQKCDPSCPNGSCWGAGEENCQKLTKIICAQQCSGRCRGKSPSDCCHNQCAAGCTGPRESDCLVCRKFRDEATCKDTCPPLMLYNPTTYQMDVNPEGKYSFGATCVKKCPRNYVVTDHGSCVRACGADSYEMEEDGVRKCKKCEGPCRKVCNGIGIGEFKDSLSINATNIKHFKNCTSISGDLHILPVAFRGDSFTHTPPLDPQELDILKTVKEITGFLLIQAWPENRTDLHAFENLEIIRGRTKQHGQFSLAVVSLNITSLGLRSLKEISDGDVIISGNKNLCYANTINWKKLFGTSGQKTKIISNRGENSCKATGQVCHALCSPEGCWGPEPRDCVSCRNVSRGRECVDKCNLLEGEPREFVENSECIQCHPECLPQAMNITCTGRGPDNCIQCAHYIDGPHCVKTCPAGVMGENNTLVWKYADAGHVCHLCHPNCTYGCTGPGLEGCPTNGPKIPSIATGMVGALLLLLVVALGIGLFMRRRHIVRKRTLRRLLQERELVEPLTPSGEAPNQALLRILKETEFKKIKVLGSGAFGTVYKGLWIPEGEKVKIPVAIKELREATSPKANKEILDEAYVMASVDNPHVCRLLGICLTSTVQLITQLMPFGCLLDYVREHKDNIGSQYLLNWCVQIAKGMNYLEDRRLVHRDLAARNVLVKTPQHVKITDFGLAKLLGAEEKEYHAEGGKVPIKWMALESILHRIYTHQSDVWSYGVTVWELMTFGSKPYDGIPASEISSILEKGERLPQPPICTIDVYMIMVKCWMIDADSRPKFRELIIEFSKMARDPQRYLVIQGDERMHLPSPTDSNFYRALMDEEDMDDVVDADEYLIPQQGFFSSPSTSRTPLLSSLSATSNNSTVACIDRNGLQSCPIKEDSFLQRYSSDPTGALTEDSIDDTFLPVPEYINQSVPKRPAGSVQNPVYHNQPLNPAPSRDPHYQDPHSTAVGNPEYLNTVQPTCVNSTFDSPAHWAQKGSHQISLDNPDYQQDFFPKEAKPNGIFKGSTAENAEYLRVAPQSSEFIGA
T1 sequence (Q06187 whole entry): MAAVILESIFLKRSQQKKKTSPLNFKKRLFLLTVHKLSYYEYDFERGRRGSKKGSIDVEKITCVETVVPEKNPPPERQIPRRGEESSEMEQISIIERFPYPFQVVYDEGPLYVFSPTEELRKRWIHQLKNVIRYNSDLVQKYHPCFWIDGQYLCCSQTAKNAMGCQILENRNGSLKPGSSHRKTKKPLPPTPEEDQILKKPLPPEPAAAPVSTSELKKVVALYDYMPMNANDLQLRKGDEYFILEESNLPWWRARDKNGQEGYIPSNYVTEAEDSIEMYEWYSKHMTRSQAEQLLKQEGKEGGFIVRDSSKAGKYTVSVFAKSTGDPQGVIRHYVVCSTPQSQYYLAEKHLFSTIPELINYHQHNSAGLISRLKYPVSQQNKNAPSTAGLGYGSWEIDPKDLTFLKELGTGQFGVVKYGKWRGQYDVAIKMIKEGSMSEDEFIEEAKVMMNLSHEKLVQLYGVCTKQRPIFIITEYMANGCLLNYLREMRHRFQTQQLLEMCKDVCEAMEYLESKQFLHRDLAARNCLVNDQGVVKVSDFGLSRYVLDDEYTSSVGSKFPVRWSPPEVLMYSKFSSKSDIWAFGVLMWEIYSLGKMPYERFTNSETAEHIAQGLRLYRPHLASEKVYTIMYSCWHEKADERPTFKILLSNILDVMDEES

In general, IC50 refers to the concentration that inhibits the measured activity by half. For `CC#CC(=O)N1CCC[C@@H](n2nc(-c3ccc(C(=O)Nc4cc(C#N)ccn4)cc3)c3c(N)ncnc32)C1` [Compound ID 14, (R)-4-(4-amino-1-(1-but-2-ynoylpiperidin-3-yl)-1H-pyrazolo[3,4-d]pyrimidin-3-yl)-N-(4-cyanopyridin-2-yl)benzamide], the IC50 against LCK is 10 to 100 nM; against EGFR it was 100 to 1000 nM; on Btk [1] it was at most 10 nM; on Btk [2], at most 10 nM.

As to `C/C=C/C(=O)N1CC[C@@H](n2nc(-c3ccc(C(=O)Nc4cc(C)ccn4)cc3)c3c(N)ncnc32)C1` [Compound ID 32, (R,E)-4-(4-amino-1-(1-but-2-enoylpyrrolidin-3-yl)-1H-pyrazolo[3,4-d]pyrimidin-3-yl)-N-(4-methylpyridin-2-yl)benzamide], on Btk [1], the IC50 was at most 10 nM.

As to `Nc1ncnc2c1c(-c1ccc(C(=O)Nc3ccccn3)cc1)nn2[C@@H]1CCN(C(=O)C#CCO)C1` [Compound ID 19, (R)-4-(4-amino-1-(1-(4-hydroxybut-2-ynoyl)pyrrolidin-3-yl)-1H-pyrazolo[3,4-d]pyrimidin-3-yl)-N-(pyridin-2-yl)benzamide], the values for the IC50 against LCK, on EGFR and on Btk [2] were 100 to 1000 nM, 10 to 100 nM and at most 10 nM, respectively.

As for `COCC#CC(=O)N1CC[C@@H](n2nc(-c3ccc(C(=O)Nc4ccccn4)cc3)c3c(N)ncnc32)C1` [Compound ID 18, (R)-4-(4-amino-1-(1-(4-methoxybut-2-ynoyl)pyrrolidin-3-yl)-1H-pyrazolo[3,4-d]pyrimidin-3-yl)-N-(pyridin-2-yl)benzamide], the figures for the IC50 at LCK, on EGFR and on Btk [2] were 10 to 100 nM, at most 10 nM and at most 10 nM, respectively.

At Btk [1], `Nc1ncnc2c1c(-c1ccc(C(=O)Nc3cc(C(F)(F)F)ccn3)cc1)nn2[C@@H]1CCN(C(=O)C#CCO)C1` [Compound ID 49, (R)-4-(4-amino-1-(1-(4-hydroxybut-2-ynoyl)pyrrolidin-3-yl)-1H-pyrazolo[3,4-d]pyrimidin-3-yl)-N-(4-(trifluoromethyl)pyridin-2-yl)benzamide] returned an IC50 of at most 10 nM.

At Btk [1], `CC(C)=CC(=O)N1CC[C@@H](n2nc(-c3ccc(C(=O)Nc4cc(C)ccn4)cc3)c3c(N)ncnc32)C1` [Compound ID 33, (R)-4-(4-amino-1-(1-(3-methylbut-2-enoyl)pyrrolidin-3-yl)-1H-pyrazolo[3,4-d]pyrimidin-3-yl)-N-(4-methylpyridin-2-yl)benzamide] registered an IC50 above 10 nM.

With `CC#CC(=O)N1CC[C@@H](n2nc(-c3ccc(C(=O)Nc4cc(CCC)ccn4)cc3)c3c(N)ncnc32)C1` [Compound ID 9, (R)-4-(4-amino-1-(1-but-2-ynoylpyrrolidin-3-yl)-1H-pyrazolo[3,4-d]pyrimidin-3-yl)-N-(4-propylpyridin-2-yl)benzamide], the IC50 is 100 to 1000 nM against LCK, at most 10 nM against EGFR, at most 10 nM against Btk [1] and at most 10 nM at Btk [2].

`CC#CC(=O)N1CCC[C@@H](n2nc(-c3ccc(C(=O)Nc4nccs4)cc3)c3c(N)ncnc32)C1` [Compound ID 16, (R)-4-(4-amino-1-(1-but-2-ynoylpiperidin-3-yl)-1H-pyrazolo[3,4-d]pyrimidin-3-yl)-N-(thiazol-2-yl)benzamide]: the IC50 was 10 to 100 nM at LCK, 10 to 100 nM on EGFR, at most 10 nM against Btk [1] and at most 10 nM on Btk [2].

Regarding `CC#CC(=O)N1CCC[C@@H](n2nc(-c3ccc(C(=O)Nc4cc(C)ccn4)cc3)c3c(N)ncnc32)C1` [Compound ID 11, (R)-4-(4-amino-1-(1-but-2-ynoylpiperidin-3-yl)-1H-pyrazolo[3,4-d]pyrimidin-3-yl)-N-(4-methylpyridin-2-yl)benzamide], the IC50 on LCK is 10 to 100 nM; on EGFR it was 10 to 100 nM; on Btk [1] it was at most 10 nM; on Btk [2], at most 10 nM.

`N#CC1(C(=O)N2CC[C@@H](n3nc(-c4ccc(C(=O)Nc5ccccn5)cc4)c4c(N)ncnc43)C2)CC1` [Compound ID 52, (R)-4-(4-amino-1-(1-(1-cyanocyclopropanecarbonyl)pyrrolidin-3-yl)-1H-pyrazolo[3,4-d]pyrimidin-3-yl)-N-(pyridin-2-yl)benzamide]: the IC50 was above 10 nM against Btk [1] and 100 to 1000 nM against Btk [2].

With `C=CC(=O)N1CCC[C@@H](n2nc(-c3ccc(C(=O)Nc4cc(C(C)C)ccn4)cc3)c3c(N)ncnc32)C1` [Compound ID 28, (R)-4-(1-(1-acryloylpiperidin-3-yl)-4-amino-1H-pyrazolo[3,4-d]pyrimidin-3-yl)-N-(4-isopropylpyridin-2-yl)benzamide], the IC50 against Btk [1] is at most 10 nM.

As for `CC#CC(=O)N1CC[C@@H](n2nc(-c3ccc(C(=O)Nc4nccs4)cc3)c3c(N)ncnc32)C1` [Compound ID 15, (R)-4-(4-amino-1-(1-but-2-ynoylpyrrolidin-3-yl)-1H-pyrazolo[3,4-d]pyrimidin-3-yl)-N-(thiazol-2-yl)benzamide], the IC50 was 100 to 1000 nM on LCK, at most 10 nM at EGFR, at most 10 nM on Btk [1] and at most 10 nM against Btk [2].

Regarding `CC#CC(=O)N1CCC[C@@H](n2nc(-c3ccc(C(=O)Nc4ccccn4)cc3)c3c(N)ncnc32)C1` [Compound ID 10, (R)-4-(4-amino-1-(1-but-2-ynoylpiperidin-3-yl)-1H-pyrazolo[3,4-d]pyrimidin-3-yl)-N-(pyridin-2-yl)benzamide], the IC50 is 100 to 1000 nM at LCK, at most 10 nM against EGFR, at most 10 nM on Btk [1] and at most 10 nM on Btk [2].

`C=CC(=O)N1CCC[C@@H](n2nc(-c3ccc(C(=O)Nc4cc(C#N)ccn4)cc3)c3c(N)ncnc32)C1` [Compound ID 29, (R)-4-(1-(1-acryloylpiperidin-3-yl)-4-amino-1H-pyrazolo[3,4-d]pyrimidin-3-yl)-N-(4-cyanopyridin-2-yl)benzamide] had an IC50 against Btk [1] of at most 10 nM.

Take `C=CC(=O)N1CCC[C@@H](n2nc(-c3ccc(C(=O)Nc4ccccn4)cc3)c3c(N)ncnc32)C1` [Compound ID 25, (R)-4-(1-(1-acryloylpiperidin-3-yl)-4-amino-1H-pyrazolo[3,4-d]pyrimidin-3-yl)-N-(pyridin-2-yl)benzamide]: on Btk [1], the IC50 was at most 10 nM.

On Btk [1], `C=CC(=O)N1CC[C@@H](n2nc(-c3ccc(C(=O)Nc4cc(C#N)ccn4)cc3)c3c(N)ncnc32)C1` [Compound ID 24, (R)-4-(1-(1-acryloylpyrrolidin-3-yl)-4-amino-1H-pyrazolo[3,4-d]pyrimidin-3-yl)-N-(4-cyanopyridin-2-yl)benzamide] registered an IC50 of at most 10 nM.

Turning to `COCC#CC(=O)N1CC[C@@H](n2nc(-c3ccc(C(=O)Nc4cc(C(F)(F)F)ccn4)cc3)c3c(N)ncnc32)C1` [Compound ID 50, (R)-4-(4-amino-1-(1-(4-methoxybut-2-ynoyl)pyrrolidin-3-yl)-1H-pyrazolo[3,4-d]pyrimidin-3-yl)-N-(4-(trifluoromethyl)pyridin-2-yl)benzamide], the IC50 at Btk [1] was at most 10 nM.
